Patent publication US9790169B2, “IDO inhibitors” (BRISTOL-MYERS SQUIBB COMPANY, priority 2015, dated 2017)

Target: human IDO1 (Homo sapiens, UniProt P14902)
Assay: Assessment of human IDO-1 inhibitory activity in HEK cells (human IDO1/HEK293 cells, kynurenine read-out with Ehrlich reagent, absorbance 490 nm)
Format: cell-based
Parameters: expressed in transfected cells
Details: HEK Human IDO-1 cellular assay
Experimental: Exemplary compounds were tested for inhibition of IDO activity.
Assessment of Human IDO-1 Inhibitory Activity in HEK Cells
HEK293 cells were transfected with a pCDNA-based mammalian expression vector harboring human IDO1 cDNA (NM 002164.2) by electroporation. They were cultured in medium (DMEM with 10% FBS) containing 1 mg/ml G418 for two weeks. Clones of HEK293 cells that stably expressed human IDO1 protein were selected and expanded for IDO inhibition assay.
The human IDO1/HEK293 cells were seeded at 10,000 cells per 50 μL per well with RPMI/phenol red free media contains 10% FBS in a 384-well black wall clear bottom tissue culture plate (Matrix Technologies LLC) 100 nL of certain concentration of compound was then added to each well using ECHO liquid handling systems. The cells were incubated for 20 hours in 37° C. incubator with 5% CO2.
The compound treatments were stopped by adding trichloroacetic acid (Sigma-Aldrich) to a final concentration at 0.2%. The cell plate was further incubated at 50° C. for 30 minute. The equal volume supernatant (20 μL) and 0.2% (w/v) Ehrlich reagent (4-dimethylaminobenzaldehyde, Sigma-Aldrich) in glacial acetic acid were mixed in a new clear bottom 384-well plate. This plate was then incubated at room temperature for 30 minute. The absorbance at 490 nm was measured on Envision plate reader.
Compound IC50 values were calculated using the counts of 500 nM of a reference standard treatment as one hundred percent inhibition, and counts of no compound but DMSO treatment as zero percent inhibition.

human IDO1, sequence (P14902 whole entry): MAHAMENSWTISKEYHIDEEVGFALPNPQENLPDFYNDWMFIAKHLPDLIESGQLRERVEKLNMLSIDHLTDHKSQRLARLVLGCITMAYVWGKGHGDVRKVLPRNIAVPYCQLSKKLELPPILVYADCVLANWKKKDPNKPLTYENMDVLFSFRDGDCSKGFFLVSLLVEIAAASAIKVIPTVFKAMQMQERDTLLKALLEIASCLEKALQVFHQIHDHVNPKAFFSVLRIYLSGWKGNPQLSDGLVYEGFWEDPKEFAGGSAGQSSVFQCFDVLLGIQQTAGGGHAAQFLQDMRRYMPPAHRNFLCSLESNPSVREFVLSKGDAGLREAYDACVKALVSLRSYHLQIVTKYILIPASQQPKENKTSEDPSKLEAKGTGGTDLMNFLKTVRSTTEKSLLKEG

SMILES | IC50 [nM]
CCN(c1ccc([C@H](COC)CC(=O)O)cc1NC(=O)Nc1cc(C)no1)C1CCOCC1 (single isomer, unassigned) [Example 440] | > 50
Cc1nc2ccc(Nc3cc(C(CC(=O)O)c4ccccc4)cc(F)c3N(CC(C)C)CC(C)C)cc2s1 (single isomer, unassigned) [Example 130, 3-(4-(Diisobutylamino)-3-fluoro-5-((2-methylbenzo[d]thiazol-6-yl)amino)phenyl)-3-phenylpropanoic acid] | > 50
CC(C)CN(c1ccc(C(C)CC(=O)O)cc1NC(=O)Nc1cncnc1)C1CCOCC1 (single isomer, unassigned) [Example 961, 3-(4-(isobutyl(tetrahydro-2H-pyran-4-yl)amino)-3-(3-(pyrimidin-5-yl)ureido)phenyl)butanoic acid] | > 50
CC[C@H](CC(=O)O)c1ccc(N(CC(C)(C)O)C2CCOCC2)c(Nc2ccc(Cl)cc2)c1 (single isomer, unassigned) [Example 203] | < 5
CCC(CC(=O)O)c1cc(NC(=O)Nc2ccc(C)cc2)c(N(CC(C)C)CC(C)C)cc1F (single isomer, unassigned) [Example 1129, 3-(4-(Diisobutylamino)-2-fluoro-5-(3-(p-tolyl)ureido)phenyl)pentanoic acid] | < 5
CC[C@@H](CC(=O)O)c1ccc(N2CCOC[C@@H]2C(C)C)c(Nc2ccc(C#N)cc2)c1 (single isomer, unassigned) [Example 83] | < 50
CCC(CC(=O)O)c1cc(F)c(N(CC(C)C)CC(C)C)c(NC(=O)Cc2ccc(F)cc2F)c1 (single isomer, unassigned) [Example 1093 E1] | < 5
CCC(CC(=O)O)c1ccc(N(CC2CC2)C(C)C)c(Nc2ccc3nc(C)sc3c2)c1 (single isomer, unassigned) [Example 716, 3-(4-((Cyclopropylmethyl)(isopropyl)amino)-3-((2-methylbenzo[d]thiazol-6-yl)amino)phenyl)pentanoic acid] | > 50
CCOc1ccc(NC(=O)Nc2cc([C@@H](COC)CC(=O)O)ccc2N(CC)C2CCOCC2)cc1 (single isomer, unassigned) [Example 432] | > 50
CC[C@@H](CC(=O)O)c1ccc(N(CC)C2CCOCC2)c(Nc2ccc3nncn3c2)c1 (single isomer, unassigned) [Example 471] | > 50
CC[C@@H](CC(=O)O)c1ccc(N2CCC[C@H]2C(C)(C)O)c(NC(=O)Nc2ccc(C)cc2)c1 (single isomer, unassigned) [Example 769] | > 50
CC[C@H](CC(=O)O)c1ccc(N2CCOC[C@@H]2C(C)C)c(Nc2ccc(Cl)cc2)c1 (single isomer, unassigned) [Example 89] | < 5
CCC(CC(=O)O)c1ccc(N(CC(C)C)C2CCCCC2)c(Nc2ccc(Cl)c(OC(F)F)c2)c1 (single isomer, unassigned) [Example 642] | < 5
COCC(CC(=O)O)c1ccc(N(CC(C)C)C2CCCCC2)c(NC(=O)Nc2ccc(C)cc2)c1 (single isomer, unassigned) [989-1] | < 5
CC[C@H](CC(=O)O)c1ccc(N(CC(C)(C)O)C2CCCCC2)c(Nc2ccc(F)cc2)c1 (single isomer, unassigned) [Example 236] | < 50
CCC(CC(=O)O)c1ccc(N(CC)C2CCCOC2)c(NC(=O)Nc2ccc(C)cc2)c1 (single isomer, unassigned) [Example 73 D3, 3-(4-(Ethyl(tetrahydro-2H-pyran-3-yl)amino)-3-(3-(p-tolyl)ureido)phenyl)pentanoic acid] | < 50
CCCN(CC1CC1)c1ccc(C(CC)CC(=O)O)cc1Nc1ccc(Cl)cc1 (single isomer, unassigned) [Example 656 E1, 3-(3-((4-Chlorophenyl)amino)-4-((cyclopropylmethyl)(propyl)amino)phenyl)pentanoic acid] | < 5

Second part, the compound after the results:

IC50 [nM] | SMILES
< 5 | CCC(CC(=O)O)c1cc(F)c(N(CC(C)C)CC(C)C)c(NC(=O)Nc2ccc(C)c(F)c2)c1 (single isomer, unassigned) [982-1]
> 50 | CC[C@H](CC(=O)O)c1ccc(N2CCOC[C@@H]2C(C)C)c(NC(=O)Nc2ccc(C)cc2)c1 (single isomer, unassigned) [Example 85]
< 50 | CCOc1ccc(NC(=O)Nc2cc(C(CC(=O)O)C3CC3)ccc2N(CC(C)C)C2CCOCC2)cc1 (single isomer, unassigned) [Example 1205 Enantiomer 1, 3-Cyclopropyl-3-(3-(3-(4-ethoxyphenyl)ureido)-4-(isobutyl(tetrahydro-2H-pyran-4-yl)amino)phenyl)propanoic acid]
< 5 | CCN(c1ccc([C@@H](COC)CC(=O)O)cc1Nc1ccc(F)cc1)C1CCOCC1 (single isomer, unassigned) [Example 375]
> 50 | Cc1ccc(CC(=O)Nc2cc(C(C)CC(=O)O)ccc2N(CC(C)C)CC(C)C)cc1 (single isomer, unassigned) [Example 953, 3-(4-(Diisobutylamino)-3-(2-(p-tolyl)acetamido)phenyl)butanoic acid]
< 5 | CCC(CC(=O)O)c1cc(F)c(N(CC(C)C)CC(C)C)c(NC(=O)Cc2ccc(F)cc2F)c1 (racemic) [Example 1082]
> 50 | CC(C)CN(c1ccc(C(CC(=O)O)C2CC2)cc1NC(=O)Nc1cncnc1)C1CCOCC1 (single isomer, unassigned) [Example 1207 Enantiomer 1, 3-Cyclopropyl-3-(4-(isobutyl(tetrahydro-2H-pyran-4-yl)amino)-3-(3-(pyrimidin-5-yl)ureido)phenyl)propanoic acid]
> 50 | CCOc1ncc(Nc2cc(C(CC)CC(=O)O)ccc2N2CCC[C@H]2C(C)(C)O)cn1 (single isomer, unassigned) [Example 839]
< 5 | CCC(CC(=O)O)c1cc(NC(=O)Nc2ccc3c(c2)OCO3)c(N(CC(C)C)C2CCCCC2)cc1F (racemic) [Example 1110, (±)-3-(5-(3-(Benzo[d][1,3]dioxol-5-yl)ureido)-4-(cyclohexyl(isobutyl)amino)-2-fluorophenyl)pentanoic acid]
< 50 | CCOc1ncc(Nc2cc(C(CC(=O)O)c3ccccc3)ccc2N(CC)C2CCOCC2)cn1 (single isomer, unassigned) [Example 578, 3-(3-((2-Ethoxypyrimidin-5-yl)amino)-4-(ethyl(tetrahydro-2H-pyran-4-yl)amino)phenyl)-3-phenylpropanoic acid]
> 50 | CCC(CC(=O)O)c1ccc(N2CCC[C@@H]2COC)c(NC(=O)Cc2ccc(C)cc2)c1 (mixture of isomers) [Example 1143, (±)-3-(4-((R)-2-(Methoxymethyl)pyrrolidin-1-yl)-3-(2-(p-tolyl)acetamido)phenyl)pentanoic acid]
< 5 | Cc1ccc(NC(=O)Nc2cc(C(C)CC(=O)O)c(F)cc2N(CC(C)C)C2CCCCC2)cc1 (single isomer, unassigned) [Example 956, 3-(4-(Cyclohexyl(isobutyl)amino)-2-fluoro-5-(3-(p-tolyl)ureido)phenyl)butanoic acid]
< 5 | CCC(CC(=O)O)c1ccc(N(CC(C)C)CC(C)C)c(NC(=O)Cc2ccc(C#N)cc2)c1 (single isomer, unassigned) [Example 1104, 3-(3-(2-(4-Cyanophenyl)acetamido)-4-(diisobutylamino)phenyl)pentanoic acid]
> 50 | CCN(c1ccc([C@H](COC)CC(=O)O)cc1NC(=O)Nc1cc(C)on1)C1CCOCC1 (single isomer, unassigned) [Example 439]
